The text below walks through data of patent publication US7915316B2, “Sulfonamides” (Allergan, Inc, priority 2005, dated 2011).

Assay [1] has as its target T1, EP2 (Homo sapiens, UniProt P43116). The experiment in a line: functional activity at hEP2 (fhEP2). Type of assay: cell-based. The following applies: Table 1.
Assay [2] addresses T2, EP4 (Homo sapiens, UniProt P35408). The experiment in a line: EP4 receptor binding (bhEP4 / EP4 Binding). The settings on record: for IC50: Table 1; for EC50 / EP4 Binding % Inh: Table 2.
Assay [3] addresses T1, EP2. The experiment in a line: cAMP assay. In kind it is cell-based. (Changes in cAMP serve as a functional read-out for many G protein-coupled receptors.)
The subject of assay [4] is EP2 and EP4 receptors. Briefly: in-vitro assay for binding to and activity at various prostaglandin receptors. The following applies: as compared to the FP, EP1, TP, IP and DP receptors.
Assay [5] concerns the target T1, EP2. The experiment in a line: EP2 receptor binding (bhEP2 / EP2 Binding). The following applies: for IC50: Table 1; for EC50 / EP2 Binding % Inh: Table 2.
In assay [6] the target is T2, EP4. Briefly: Ca2+ signal, EP4. In kind it is cell-based. The following applies: relative to PGE2.
The target in assay [7] is T1, EP2. Briefly: Ca2+ signal, EP2. The settings on record: for Emax: relative to PGE2. In kind it is cell-based.
In assay [8] the target is T3, TP (Homo sapiens, UniProt P21731).
T3 sequence (P21731 1-343): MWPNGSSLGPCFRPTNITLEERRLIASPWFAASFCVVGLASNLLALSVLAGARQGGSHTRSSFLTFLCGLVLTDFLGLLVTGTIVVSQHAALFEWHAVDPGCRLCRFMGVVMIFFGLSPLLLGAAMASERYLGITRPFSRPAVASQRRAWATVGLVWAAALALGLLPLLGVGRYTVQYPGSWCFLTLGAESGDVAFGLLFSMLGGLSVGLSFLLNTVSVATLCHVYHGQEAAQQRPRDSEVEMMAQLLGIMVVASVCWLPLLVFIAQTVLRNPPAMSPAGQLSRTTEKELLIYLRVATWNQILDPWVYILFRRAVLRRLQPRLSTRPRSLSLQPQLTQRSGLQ
The experiment in a line: activity at TP receptor. The following applies: Table 2.

Assay [9] addresses IP (Homo sapiens, UniProt P43119). Briefly: activity at IP receptor. The following applies: Table 2.

For orientation: IC50 means the concentration at which inhibition is half-maximal. A higher IC50 goes with lower potency. What is called Emax is the maximal effect, on the per cent scale that the assay sets.

T2 sequence (P35408 whole entry): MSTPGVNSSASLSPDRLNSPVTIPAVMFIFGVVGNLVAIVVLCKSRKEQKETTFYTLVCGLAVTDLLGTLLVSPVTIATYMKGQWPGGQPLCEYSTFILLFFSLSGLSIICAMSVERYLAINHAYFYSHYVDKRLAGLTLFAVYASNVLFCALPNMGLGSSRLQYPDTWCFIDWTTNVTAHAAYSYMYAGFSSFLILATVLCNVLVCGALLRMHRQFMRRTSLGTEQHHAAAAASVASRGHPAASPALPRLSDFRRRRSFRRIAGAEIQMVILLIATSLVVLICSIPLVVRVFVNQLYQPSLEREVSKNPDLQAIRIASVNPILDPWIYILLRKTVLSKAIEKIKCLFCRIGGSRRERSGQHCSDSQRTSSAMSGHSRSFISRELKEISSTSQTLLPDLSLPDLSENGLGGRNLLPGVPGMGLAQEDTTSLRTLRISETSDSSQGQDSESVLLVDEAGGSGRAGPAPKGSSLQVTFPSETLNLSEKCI
Sequence of IP (P43119 whole entry): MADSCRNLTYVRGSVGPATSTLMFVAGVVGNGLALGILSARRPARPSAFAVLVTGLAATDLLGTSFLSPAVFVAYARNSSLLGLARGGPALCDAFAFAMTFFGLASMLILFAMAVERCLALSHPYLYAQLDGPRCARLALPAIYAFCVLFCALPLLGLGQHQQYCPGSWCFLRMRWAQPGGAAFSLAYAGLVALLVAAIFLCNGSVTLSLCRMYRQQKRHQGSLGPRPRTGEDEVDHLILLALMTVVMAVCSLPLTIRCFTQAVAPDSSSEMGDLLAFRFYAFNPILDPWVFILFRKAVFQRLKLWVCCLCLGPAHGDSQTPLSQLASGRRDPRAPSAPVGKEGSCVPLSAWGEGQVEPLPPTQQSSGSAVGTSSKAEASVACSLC
T1 sequence (P43116 whole entry): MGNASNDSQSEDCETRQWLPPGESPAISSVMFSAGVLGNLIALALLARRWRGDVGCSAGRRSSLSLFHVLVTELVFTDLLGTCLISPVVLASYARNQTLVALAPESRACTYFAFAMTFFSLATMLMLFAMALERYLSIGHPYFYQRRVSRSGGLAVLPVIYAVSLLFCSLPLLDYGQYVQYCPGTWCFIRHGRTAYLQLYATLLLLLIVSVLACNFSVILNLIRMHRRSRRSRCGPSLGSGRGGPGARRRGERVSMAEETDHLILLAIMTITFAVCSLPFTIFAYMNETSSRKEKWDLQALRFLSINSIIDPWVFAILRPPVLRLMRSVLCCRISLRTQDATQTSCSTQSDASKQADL

`CCCCCC(O)c1ccc(CN(CCCCCCC(=O)O)S(=O)(=O)c2ccccc2)cc1` (centres unmarked) [7-[[4-(1-hydroxyhexyl)benzyl]benzenesulfonylamino]heptanoic acid] came in with an EC50 in assay [1] of 634 nM. In [2], this molecule registered a half-inhibitory concentration (IC50) of 150 nM.
As for `CCCCCC(O)c1ccc(CN(CCCCCCC(=O)O)S(C)(=O)=O)cc1` (centres unmarked) [Compound 12, 7-[[4-(1-Hydroxyhexyl)benzyl]methanesulfonylamino]heptanoic acid], the EC50 in [3] (Table 1, read-out: cAMP) stood at 16 nM; in assay [1] it was 406 nM. In addition, the “selectivity at EP2 and EP4 receptors” value in [4] is “selective at the EP2 and EP4 receptors”. The molecule also showed a half-maximal inhibitory concentration (IC50) in [5] of 1690 nM.
Regarding `CCCCCC(O)c1ccc(CN(Cc2ccc(OCC(=O)O)cc2)S(=O)(=O)c2cccnc2)cc1` (centres unmarked), the EC50 in [3] (Table 2, read-out: cAMP EC50) is 3.5 nM; in assay [5] it was 208 nM; in [2], 1320 nM; in assay [7], 11 nM. Further, the “EP2 Binding % Inh” value in [5] is 97%. The “EP4 Binding % Inh” value in [2] worked out at 89%. Further, the results for the Emax in [6] and in assay [7] were 2% and 92%, respectively.
In the case of `CS(=O)(=O)N(C/C=C\CCCC(=O)O)CCOc1cc(Cl)cc(Cl)c1`, in assay [8], the TP amounted to 7008. Also, the IP in assay [9] amounted to 403. The EC50 stood at 214 nM in assay [3] (Table 2, read-out: cAMP EC50); 1900 nM in assay [5]; 2920 nM in assay [2]; 2960 nM in [7]. In assay [5], the “EP2 Binding % Inh” value amounted to 81%. Also, in assay [2], the “EP4 Binding % Inh” value came to 64%. Further, the Emax in assay [6] was found to be 10%; in assay [7], 83%.
For the molecule `CCCCCC(O)c1ccc(CN(CCCCCCC(=O)O)S(=O)(=O)c2cccs2)cc1` (centres unmarked) [7-[[4-(1-hydroxyhexyl)benzyl]thiophenesulfonylamino]heptanoic acid], the EC50 was over 10000 nM in [3] (Table 1, read-out: cAMP) and 600 nM in assay [1]. The IC50 in [5] turned out to be 1490 nM; in [2], 90 nM.
Consider `CCCCCC(O)c1ccc(CN(CC#CCCCC(=O)O)S(C)(=O)=O)cc1` (centres unmarked) [7-[[4-(1-hydroxyhexyl)benzyl]methanesulfonylamino]hept-5-yne-oic acid], for which the EC50 came to 24 nM in assay [3] (Table 2, read-out: cAMP EC50); 5680 nM in assay [5]; 620 nM in assay [7].
Consider `CC(C)(C)c1ccc(CN(CCCCCCC(=O)O)S(=O)(=O)c2ccccc2)cc1` [7-[[4-(1-t-butyl)benzyl]benzenesulfonylamino]heptanoic acid], for which the EC50 is 965 nM in assay [3] (Table 2, read-out: cAMP EC50); 1540 nM in assay [5]; 373 nM in [2]; 964 nM in [7]. For the same molecule, the “EP2 Binding % Inh” value in assay [5] is listed as 82%. In assay [2], the “EP4 Binding % Inh” value came out at 99%. For the same molecule, the maximal effect (Emax) in [6] is 11%; in assay [7], 78%.
In the case of `CC(C)(C)c1ccc(CN(CCCCCCC(=O)O)S(C)(=O)=O)cc1` [7-[[4-(1-t-butyl)benzyl]methanesulfonylamino]heptanoic acid], in assay [9], the IP entry is given as “IP = 2561”. Besides, the EC50 in assay [3] (Table 2, read-out: cAMP EC50) amounted to 156 nM; in [7] it was 2310 nM. Also, the “EP2 Binding % Inh” value in assay [5] was determined as 60%. For the same molecule, the “EP4 Binding % Inh” value in [2] came out at 41%. Also, the Emax was found to be 2% in assay [6] and 89% in [7].
Consider `CC(C)(C)c1ccc(CN(Cc2ccc(OCC(=O)O)cc2)S(=O)(=O)c2cccnc2)cc1` [4-[[4-(1-t-butyl)benzyl]pyridinesulfonylaminomethyl]phenoxyacetic acid], for which the EC50 in assay [3] (Table 2, read-out: cAMP EC50) was found to be 18 nM; in [5] it was 100 nM; in [2], 1340 nM; in assay [7], 20 nM. Moreover, the “EP2 Binding % Inh” value in assay [5] is reported as 93%. In assay [2], the “EP4 Binding % Inh” value amounted to 59%. The maximum response (Emax) in assay [6] came to 0%; in [7], 87%.
With `CS(=O)(=O)N(CC#CCCCC(=O)O)CCOc1cc(Cl)cc(Cl)c1`, the IP entry in assay [9] is given as “IP = 868”. Besides, the EC50 in assay [3] (Table 2, read-out: cAMP EC50) was 84 nM; in [5], 1130 nM; in assay [2] it was 4170 nM; in [7], 1250 nM. Besides, in assay [5], the “EP2 Binding % Inh” value was 87%. The “EP4 Binding % Inh” value in [2] stood at 55%. Further, the Emax in assay [6] amounted to 5%; in assay [7] it was 90%.
For `CCCCCC(O)c1ccc(CN(CCCCCCC(=O)O)S(=O)(=O)c2cccnc2)cc1` (centres unmarked), the EC50 in [3] (Table 1, read-out: cAMP) turned out to be 138 nM; in assay [1], 275 nM. Further, the IC50 in assay [5] is 4730 nM; in assay [2] it was 546 nM.
Regarding `CC(C)(C)c1ccc(CN(CCCCCCC(=O)O)S(=O)(=O)c2cccs2)cc1` [7-[[4-(1-t-butyl)benzyl]thiophenelsulfonylamino]heptanoic acid], the EC50 worked out at 1970 nM in assay [3] (Table 2, read-out: cAMP EC50); 493 nM in assay [5]; 706 nM in [2]; 1130 nM in assay [7]. The “EP2 Binding % Inh” value in [5] came to 76%. Also, the “EP4 Binding % Inh” value in [2] is given as 94%. The Emax is 9% in assay [6] and 71% in assay [7].
On to `CC(C)(C)c1ccc(CN(CCCCCCC(=O)O)S(=O)(=O)c2cccnc2)cc1` [7-[[4-(1-t-butyl)benzyl]pyridinesulfonylamino]heptanoic acid], for which the EC50 worked out at 126 nM in [3] (Table 2, read-out: cAMP EC50); 829 nM in assay [5]; 1380 nM in assay [2]; 591 nM in assay [7]. Further, the “EP2 Binding % Inh” value in assay [5] was found to be 73%. Further, the “EP4 Binding % Inh” value in [2] worked out at 71%. The values for the Emax in assay [6] and in [7] were 1% and 83%, respectively.
